“Also recorded” adds a separate entry of the source. Where no end group is shown, it is not given here. The star is where a group is joined. Biotin = O=C1N[C@H]2[C@H](CS[C@H]2CCCCC(=O)*)N1
What was measured:
[1] = system: porcine aortic endothelial (PAE) cells; experiment: In vitro tube formation assay; assay type: cell-based
Experimental: Porcine aortic endothelial (PAE) cells were stably transfected with Green Fluorescent Protein (GFP) and seeded at a concentration of 18,000 cells per well of a 96-well culture plate. The wells were coated with […] basement membrane matrix (Invitrogen, CA). Cells were resuspended in medium at a concentration of 2.25×10^5 to 2.5×10^5 cells/ml. An […] (18,000-20,000) cells were added per well. Positive control cells were cultured with medium supplemented with 1.0% fetal bovine serum (FBS). Negative control cells were cultured with serum-free medium. […] After three or more hours of incubation, cells were assessed for tube formation and were photographed. Assays were performed in triplicate.

[2] = biological target: T1, apelin G protein receptor (known as APJ) (Homo sapiens, UniProt P35414); settings: Tatemoto et al. 1998; cited from earlier work
T1 sequence (P35414 1-380): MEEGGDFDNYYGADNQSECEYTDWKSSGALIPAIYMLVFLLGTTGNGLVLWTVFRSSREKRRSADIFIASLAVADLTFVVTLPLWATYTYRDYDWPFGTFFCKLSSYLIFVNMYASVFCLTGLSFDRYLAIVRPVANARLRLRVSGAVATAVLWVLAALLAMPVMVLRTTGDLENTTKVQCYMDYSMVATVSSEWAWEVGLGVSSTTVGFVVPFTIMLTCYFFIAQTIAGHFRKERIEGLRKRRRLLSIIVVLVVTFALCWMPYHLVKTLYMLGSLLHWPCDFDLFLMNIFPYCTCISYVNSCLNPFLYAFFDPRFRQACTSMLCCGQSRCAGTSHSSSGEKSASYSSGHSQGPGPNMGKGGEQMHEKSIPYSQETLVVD

APJ receptor = biological target: T2, APJ receptor (Homo sapiens, UniProt P35414); settings: cited from earlier work
T2 sequence (P35414 1-380): T1 sequence (P35414 1-380)

[3] = system: human breast cancer cell line MDA-MB-435; experiment: Proliferation assay, MDA-MB-435; assay type: cell-based; settings: for proliferative response over dose range: dose range of 1 nM to 1 uM; for relative potency in proliferation assays: salcut-NH2 of two manufacturers vs biotinylated salcut, FIG. 14A-14C
From the text: An N-terminal biotinylated salcut-NH2 ligand was synthesized (a single biotin moiety was attached to the amino-terminal leucine residue). Validity of the chemical composition of the biotinylated salcut-NH2 was accomplished using amino acid sequence analysis and MADLI-TOF mass spectrometry characterization.

MDA-MB-345 cells = experiment: Binding of biotinylated salcut-NH2 to cells (fluorescent labeling); assay type: cell-based, human
[4] = system: human blood vessel endothelial (HMEC-1) cells; experiment: Proliferation assay (ATPLITE), HMEC-1; assay type: cell-based; settings: FIGS. 3E, 3F, 6
From the text: (§1) Proliferation response profiles of apelin, salcut-NH2, salcut-Gly, and/or salcut-OH on a variety of endothelial and tumor cell lines or primary endothelial cells were obtained using the following method. Human blood vessel endothelial cells (HMEC-1), human primary microvascular dermal EC (dB1), human lymphatic endothelial cells (LEC), human mast cells (HMC-1), human breast cancer cells (MCF-7; T47D), human gastric cancer cells (HTB 103), human lung cancer cells (A549), monkey endothelial cells (CRL 1780), and porcine aortic endothelial cells (PAE) were seeded at 25,000 cells per well at 50 μl volume in appropriate media containing 0.5% serum in a 96 well plate. After overnight incubation the peptide was added in serum free media and cells were incubated for 3-5 days. To measure growth proliferation, the adenosine triphosphate ATPLITE™ one-step assay (PerkinElmer), which is based on firefly luciferase and has high sensitivity for quantification of viable cells, was used. Data were expressed as mean plus minus standard deviation. Statistical analyses were performed using Student's t-test, p values less than 0.05 were considered statistically significant.
Endothelial cell proliferation assays were performed as described above with both spontaneously immortalized porcine aortic endothelial (PAE) cells and SV40 immortalized human dermal microvascular endothelial (HMEC-1).

[5] = system: human breast cancer cell line MCF-7; experiment: Proliferation assay (ATPLITE), MCF-7; assay type: cell-based; settings: 1 nM to 1 μM dose range; FIG. 4A
From the text: as §1

[6] = system: endothelial and tumor cell lines or primary endothelial cells; experiment: Proliferation response (ATPLITE one-step assay) on a variety of endothelial and tumor cell lines; assay type: cell-based; settings: 3E
From the text: as §1

[7] = system: human gastric cancer cell line HTB-103; experiment: Proliferation assay (ATPLITE), HTB 103; assay type: cell-based; settings: FIG. 5
From the text: as §1

[8] = system: human mast cell line HMC-1; experiment: Proliferation assay (ATPLITE), HMC-1; assay type: cell-based; settings: FIG. 5
From the text: as §1

[9] = system: A549 human bronchioloalveolar cancer cells; experiment: Nude mouse xenograft study; assay type: in vivo, nude mice; settings: 10 μM
Experimental: (§2) Six week old female nude mice were used in this study; ten mice were used per test group. A549 human bronchioloalveolar cancer cells were cultured at the SAIC/Frederick facility. 1×10^7 A549 cells were injected subcutaneously in the hindquarter of each nude mouse. The following treatment regime was started seven days following tumor injection: Group 1—PBS control; Group 2—salcut-NH2 peptide (10 μM). Appropriate Groups were treated with 25 μl injections at four corners around the tumor, three times per week for five weeks. Mice were inspected, weighed, and tumors measured (H×W×L) three times per week with calipers. Following completion of the experiment, mice were euthanized, tumors excised, and cut into four pieces. Two segments were frozen and stored at −80° C. and two segments were paraffin embedded for pathology.
as §2, with “In another experiment, six” for “Six”, “(10 pM); Group 3—salcut-NH2 peptide (10 nM); Group 4—salcut-NH2 peptide (10” for “(10”, “100” for “25”, “intraperitoneally,” for “at four corners around the tumor,”, “four” for “five”

rat aortic ring = experiment: Rat aortic ring assay (vessel outcropping); assay type: cell-based
Experimental: On day 0, rats were euthanized and decapitated, and aortas were harvested and transferred to a culture dish containing EGM-2 with growth factors (20 ml media; Clonetics). Fibroadipose tissue and other non-aortic tissue were removed. Using dissecting microscope, the aorta was sectioned into 1 mm-long rings. Aortic rings were then rinsed 6-8× with EGM-2 with growth factors. Aortic rings were each placed in the center of a matrix (GELTREX™; Invitrogen Corp)-coated culture well. Aortic tissue was covered with 250 μl GELTREX™ and each well was incubated with 1 ml EGM-2 with growth factors supplemented for 24 hours at 37° C., 5% CO2.
On day 1, media with growth factors was removed, 250 μl of media (without growth factors) with either 0.1 nM, 1.0 nM, or 10 nM of salcut-NH2 was added to each well and incubated at 37° C., 5% CO2 for 5-7 days.

[10] = system: human lung cancer cell line A549; experiment: Proliferation assay (ATPLITE), A549; assay type: cell-based
From the text: as §1

(Ala13)-apelin-13 [reference compound]
effect of antagonist on endothelial cell tube formation ([1]; in the presence of 1 nM apelin-13, FIG. 8): inhibited endothelial cell tube formation

apelin-17
potency of peptide-induced acidification rates [2]: moderately potent
binding to the APJ receptor (APJ receptor): can bind the APJ receptor

biotinylated salcut: N-terminal biotinylated salcut-NH2 ligand; a single biotin moiety attached to the amino-terminal leucine residue (Biotin-LVQPRGSRNGPGPWQG-NH2; SMILES CC(C)C[C@H](NC(=O)CCCC[C@@H]1SC[C@@H]2NC(=O)N[C@@H]21)C(=O)N[C@H](C(=O)N[C@@H](CCC(N)=O)C(=O)N1CCC[C@H]1C(=O)N[C@@H](CCCNC(=N)N)C(=O)NCC(=O)N[C@@H](CO)C(=O)N[C@@H](CCCNC(=N)N)C(=O)N[C@@H](CC(N)=O)C(=O)NCC(=O)N1CCC[C@H]1C(=O)NCC(=O)N1CCC[C@H]1C(=O)N[C@@H](Cc1c[nH]c2ccccc12)C(=O)N[C@@H](CCC(N)=O)C(=O)NCC(N)=O)C(C)C)
proliferative response over dose range [3]: large change in response
relative potency in proliferation assays [3]: equipotent in proliferation assays
binding to cells (fluorescent labeling) (MDA-MB-345 cells): high intensity fluorescent labeling

salcut-Gly: glycine-extended form of human apelin-36 (42-57) (LVQPRGSRNGPGPWQGG; homo sapiens)
effect on HMEC-1 proliferation [4]: non-responsive over the dose range tested; also recorded: minor effect on proliferation; also recorded: do not have a statistically significant effect on cell growth
effect on HMEC-1 proliferation ([4]; listed as salcut Gly): no effect on HMEC-1 cell proliferation

salcut-NH2: amide derivative of human apelin-36 (42-57), sixteen amino acid peptide from residues 42-57 of apelin preproprotein (LVQPRGSRNGPGPWQG-NH2)
proliferative dose response [5]: biphasic response curve; also recorded: biphasic (rise and fall) response
concentration having a suppressive effect on cell proliferation ([6]; FIGS. 3A-3D, 3G, 3I-3O): ≥ 10 nM
cell proliferation (relative luminescent units [RLU]) ([6]; compared to cells cultured in the absence of these compounds (0 Rx), FIGS. 3A-3C, 3G-3O): increases
proliferative dose response [7]: biphasic response curves; also recorded: biphasic (rise and fall) response
concentration at which a suppressive effect on tube formation was observed [1]: exceeding 10 nM
proliferative dose response [8]: biphasic response curves; also recorded: only responded to lower concentrations of salcut-NH2 by stimulating proliferation
proliferative response over dose range [3]: large change in response
relative potency in proliferation assays [3]: equipotent in proliferation assays
tumor growth ([9]; 10 pM, 10 nM, 100 μl intraperitoneally, three times per week for four weeks, compared to PBS, FIG. 12): reduced tumor growth
tumor growth ([9]; 25 μl injections at four corners around the tumor, three times per week for five weeks, compared to PBS): dramatic reduction in tumor growth
tumor growth ([9]; 100 μl intraperitoneally, three times per week for four weeks): highly statistically significant (<0.005) suppression of tumor growth
effect on HMEC-1 proliferation [4]: biphasic response curve; also recorded: potent stimulators of HMEC-1 proliferation; also recorded: biphasic (rise and fall) response
number of vessels forming from the aortic ring (rat aortic ring; 0.1 nM, 1.0 nM, 10 nM, 5-7 days, FIG. 9): number of vessels formed increase with increasing concentration; also recorded: increased number of vessels forming from the aortic ring
vessel formation within the aortic ring (rat aortic ring; 10 nM dose): Vessels begin to form with the ring; also recorded: vessels were beginning to form within the aortic ring
inhibition of binding of biotinylated salcut-NH2 to cells (MDA-MB-345 cells; unlabeled peptide in the presence of biotinylated salcut-NH2): can be inhibited
effect on proliferation (stimulation) ([10]; 10 nM to 100 pM range, FIG. 3D): neither apelin-13 (65-77) nor salcut-NH2 affect proliferation; also recorded: does not stimulate proliferation
effect on proliferation at higher concentrations ([10]; higher concentrations, 1 nM to 1 μM dose range (FIG. 4B)): lack of a statistically significant proliferative response; also recorded: cell growth suppressive effect at higher concentrations; also recorded: did not respond in a statistically significant manner

salcut-OH: human apelin-36 (42-57), the free-acid derivative of salcut (LVQPRGSRNGPGPWQG-OH)
effect on HMEC-1 proliferation [4]: minor effect on proliferation; also recorded: do not have a statistically significant effect on cell growth
effect on HMEC-1 proliferation ([4]; listed as Salcut-OH): non-responsive over the dose range tested
effect on HMEC-1 proliferation ([4]; listed as salcut OH): no effect on HMEC-1 cell proliferation

— patent publication US8946382B2, “Apelin peptides and methods of use” (The United States of America, as represented by the …, priority 2009, dated 2015)
